Drawing on publication PMC9716094, “Synthesis of novel amidines via one-pot three component reactions: Selective topoisomerase I inhibitors with antiproliferative properties” (Frontiers in Chemistry, 2022), this text covers inhibition for one molecule.

In this assay the target is T1, topo IIα (Homo sapiens, UniProt P11388).
T1 construct: purchased USB Corp., USA
Description: Topo IIα inhibitory assay (pBR322 relaxation). The assay is classed as biochemical. On the procedure: All the tested compounds were dissolved in DMSO and the DNA topoisomerase I and II inhibitory activity of each compound was measured as follows according to previously reported methods. Mixture comprising of 100 ng supercoiled pBR322 plasmid DNA (Thermo Scientific, USA) and 0.2 ~ 1 unit of recombinant human DNA topo I (Topo GEN INC., USA) or topo IIα (USB Corp., USA) was incubated with or without the prepared compounds in the assay buffer (For topo I, 10 mM Tris-HCl (pH 7.9), 150 mM NaCl and 0.1% BSA, 0.1 mM spermidine and 5% glycerol; for topo II, 10 mM Tris-HCl (pH 7.9), 50 mM NaCl, 50 mM KCl, 5 mM MgCl2, 1 mM EDTA, 1 mM ATP and […] BSA) for 30 min at 37 ◦C. The reaction with final volume of 10 μL was stopped by adding the topo stop buffer (For topo I, 10% SDS solution containing 0.2% bromophenol blue, 0.2% xylene cyanol and 30% glycerol; for topo II, 7 mM EDTA). The reaction products were electrophoresed on 0.8% agarose gel at 50 V for 1 h with TAE electrophoresis buffer. The gels were stained in an EtBr solution (0.5 mg/mL) and visualized by transillumination with UV light and were quantitated using Alpha Tech ImagerTM (Alpha Innotech Corp., USA).

The structures appear in SMILES notation.

One may read the inhibition as the share of the control response that was lost under treatment.

T1 sequence (P11388 whole entry): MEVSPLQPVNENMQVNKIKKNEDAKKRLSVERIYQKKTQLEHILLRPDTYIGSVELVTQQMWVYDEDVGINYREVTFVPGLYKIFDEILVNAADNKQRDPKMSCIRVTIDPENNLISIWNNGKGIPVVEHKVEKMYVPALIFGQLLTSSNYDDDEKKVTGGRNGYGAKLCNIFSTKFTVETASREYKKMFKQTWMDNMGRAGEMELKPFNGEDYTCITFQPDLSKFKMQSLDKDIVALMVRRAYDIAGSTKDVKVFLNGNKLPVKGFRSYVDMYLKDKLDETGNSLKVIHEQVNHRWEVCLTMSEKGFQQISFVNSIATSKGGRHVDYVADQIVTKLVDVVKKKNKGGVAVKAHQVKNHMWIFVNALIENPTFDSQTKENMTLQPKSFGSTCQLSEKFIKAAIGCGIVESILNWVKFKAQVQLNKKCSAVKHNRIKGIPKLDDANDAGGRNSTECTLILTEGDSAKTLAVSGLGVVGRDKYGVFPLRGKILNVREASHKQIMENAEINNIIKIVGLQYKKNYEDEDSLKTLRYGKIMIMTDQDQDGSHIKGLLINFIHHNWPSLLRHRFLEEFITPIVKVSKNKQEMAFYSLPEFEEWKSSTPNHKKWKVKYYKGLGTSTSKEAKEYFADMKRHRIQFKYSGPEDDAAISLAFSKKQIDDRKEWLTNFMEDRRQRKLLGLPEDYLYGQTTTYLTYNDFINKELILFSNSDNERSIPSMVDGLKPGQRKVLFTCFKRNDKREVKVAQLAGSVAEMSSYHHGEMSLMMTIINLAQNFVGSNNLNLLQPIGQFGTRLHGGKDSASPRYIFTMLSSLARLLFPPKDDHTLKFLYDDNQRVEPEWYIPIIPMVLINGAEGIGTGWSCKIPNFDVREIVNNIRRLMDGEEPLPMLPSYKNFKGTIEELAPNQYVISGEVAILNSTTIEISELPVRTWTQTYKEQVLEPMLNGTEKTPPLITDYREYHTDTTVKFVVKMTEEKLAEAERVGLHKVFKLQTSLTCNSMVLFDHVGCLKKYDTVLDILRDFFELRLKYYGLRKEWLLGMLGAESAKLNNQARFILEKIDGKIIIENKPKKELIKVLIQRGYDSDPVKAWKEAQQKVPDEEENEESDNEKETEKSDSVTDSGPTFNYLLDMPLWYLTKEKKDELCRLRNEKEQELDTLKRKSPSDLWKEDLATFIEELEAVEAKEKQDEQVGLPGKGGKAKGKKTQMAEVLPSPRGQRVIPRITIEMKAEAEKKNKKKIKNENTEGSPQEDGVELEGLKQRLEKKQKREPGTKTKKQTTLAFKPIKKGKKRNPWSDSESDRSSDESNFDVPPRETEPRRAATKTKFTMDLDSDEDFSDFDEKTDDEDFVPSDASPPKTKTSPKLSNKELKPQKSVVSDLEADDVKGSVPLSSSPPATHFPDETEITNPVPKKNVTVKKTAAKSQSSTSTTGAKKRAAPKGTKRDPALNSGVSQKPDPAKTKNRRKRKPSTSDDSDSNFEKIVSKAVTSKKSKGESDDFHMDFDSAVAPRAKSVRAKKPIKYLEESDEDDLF

For the molecule `COc1cc([C@@H]2c3cc4c(cc3[C@@H](O[C@@H]3O[C@@H]5CO[C@@H](C)O[C@H]5[C@H](O)[C@H]3O)[C@H]3COC(=O)[C@H]23)OCO4)cc(OC)c1O` [Etoposide, reference compound], the inhibition at 20 µM was found to be 66% and the inhibition at 100 µM is 83.7%.
